Laboratory results published in ChEMBL document CHEMBL1909046, “DrugMatrix in vitro pharmacology data”.
pIC50, pKi: −log10 of the molar value. *1 amine or outer side, *2 acyl side, *3 side chain or, on linkers, in order; H or OH if unused. Where a SMILES comes first, the peptide text is derived from it. Bridges are numbered along the chain shown (N, C = ends). Roman numbers before positions name the chains, in order. [ ]: non-standard residue; d: D form. Actinocin(1to9) = Cc1c2oc3c(C)ccc(C(=O)[*:2])c3nc-2c(C(=O)[*:1])c(N)c1=O; NMeV = CN[C@H](C(=O)O)C(C)C; Sar = CNCC(=O)O

Columns and labels:
[1] = molecular target: Mitogen-activated protein kinase 1 (Homo sapiens, UniProt P28482); experiment: DRUGMATRIX: Protein Serine/Threonine Kinase, ERK2 enzyme inhibition (substrate: Myelin Basic Protein); parameters: species or system Escherichia coli; details: Not Active = under 50% inhibition at 10 µM; for pIC50: read-out: IC50
Mitogen-activated protein kinase 1, sequence (P28482 whole entry): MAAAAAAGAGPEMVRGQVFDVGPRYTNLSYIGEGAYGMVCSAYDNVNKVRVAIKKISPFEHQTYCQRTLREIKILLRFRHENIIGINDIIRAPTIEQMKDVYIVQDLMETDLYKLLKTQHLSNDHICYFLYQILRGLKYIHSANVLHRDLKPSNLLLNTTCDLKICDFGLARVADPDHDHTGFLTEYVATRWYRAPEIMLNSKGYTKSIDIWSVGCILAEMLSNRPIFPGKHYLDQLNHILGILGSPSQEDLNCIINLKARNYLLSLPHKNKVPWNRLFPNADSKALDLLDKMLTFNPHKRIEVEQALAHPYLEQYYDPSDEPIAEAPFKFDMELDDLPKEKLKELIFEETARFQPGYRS

Caspase-1 = molecular target: T1, Caspase-1 (Homo sapiens, UniProt P29466); parameters: species or system Escherichia coli;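 note: Caspase-1 enzyme inhibition assay with a peptide substrate; in other assays of this panel Not Active means under 50% inhibition at 10 µM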
T1 sequence (P29466 whole entry): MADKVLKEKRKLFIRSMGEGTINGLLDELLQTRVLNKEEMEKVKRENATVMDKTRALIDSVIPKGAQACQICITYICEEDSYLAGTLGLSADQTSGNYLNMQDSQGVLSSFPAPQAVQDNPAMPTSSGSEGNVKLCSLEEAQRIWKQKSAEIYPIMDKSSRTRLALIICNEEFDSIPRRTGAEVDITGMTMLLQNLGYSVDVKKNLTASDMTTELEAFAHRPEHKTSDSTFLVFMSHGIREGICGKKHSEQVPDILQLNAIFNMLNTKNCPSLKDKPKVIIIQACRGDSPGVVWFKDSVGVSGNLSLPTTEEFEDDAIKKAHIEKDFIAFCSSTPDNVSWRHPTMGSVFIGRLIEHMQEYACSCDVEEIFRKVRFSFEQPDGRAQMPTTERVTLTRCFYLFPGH

[2] = molecular target: Epidermal growth factor receptor (Homo sapiens, UniProt P00533); experiment: DRUGMATRIX: Protein Tyrosine Kinase, EGF Receptor enzyme inhibition (substrate: Poly(Glu:Tyr)); type: cell-based, Insect cells; details: Not Active = under 50% inhibition at 10 µM; for IC50: insect cells; for pIC50: read-out: IC50
Epidermal growth factor receptor, sequence (P00533 whole entry): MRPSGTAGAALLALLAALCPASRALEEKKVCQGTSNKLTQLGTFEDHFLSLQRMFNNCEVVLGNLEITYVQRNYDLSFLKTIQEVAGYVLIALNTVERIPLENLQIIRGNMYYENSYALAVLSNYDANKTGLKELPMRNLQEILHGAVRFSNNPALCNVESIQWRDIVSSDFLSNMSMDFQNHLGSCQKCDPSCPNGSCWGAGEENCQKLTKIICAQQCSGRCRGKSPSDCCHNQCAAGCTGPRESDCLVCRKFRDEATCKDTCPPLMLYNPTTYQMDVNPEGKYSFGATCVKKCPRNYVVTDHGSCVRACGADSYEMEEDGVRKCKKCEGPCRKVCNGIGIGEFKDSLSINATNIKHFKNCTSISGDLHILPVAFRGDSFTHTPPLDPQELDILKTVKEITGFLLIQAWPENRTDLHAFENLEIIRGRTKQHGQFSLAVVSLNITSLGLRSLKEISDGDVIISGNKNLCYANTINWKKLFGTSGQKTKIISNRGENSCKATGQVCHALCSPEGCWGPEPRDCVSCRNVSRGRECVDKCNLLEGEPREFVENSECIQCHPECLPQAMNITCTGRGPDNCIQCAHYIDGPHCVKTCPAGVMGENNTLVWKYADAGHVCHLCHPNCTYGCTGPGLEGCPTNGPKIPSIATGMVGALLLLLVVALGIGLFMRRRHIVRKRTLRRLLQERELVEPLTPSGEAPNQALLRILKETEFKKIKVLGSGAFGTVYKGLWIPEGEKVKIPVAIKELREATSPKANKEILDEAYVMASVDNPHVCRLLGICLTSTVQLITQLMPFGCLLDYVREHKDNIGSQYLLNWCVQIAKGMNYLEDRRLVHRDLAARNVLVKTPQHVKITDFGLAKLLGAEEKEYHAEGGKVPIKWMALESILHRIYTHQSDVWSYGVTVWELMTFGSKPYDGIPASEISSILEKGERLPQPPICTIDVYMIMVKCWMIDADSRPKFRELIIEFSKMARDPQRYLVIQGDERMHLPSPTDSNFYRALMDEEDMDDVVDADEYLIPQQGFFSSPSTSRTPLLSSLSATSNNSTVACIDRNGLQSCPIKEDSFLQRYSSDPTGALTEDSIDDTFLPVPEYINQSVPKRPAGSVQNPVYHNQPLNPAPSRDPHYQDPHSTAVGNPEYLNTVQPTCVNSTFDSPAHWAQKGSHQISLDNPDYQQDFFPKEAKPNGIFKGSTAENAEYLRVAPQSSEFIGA

[3] = molecular target: T2, 5-hydroxytryptamine receptor 1A (Rattus norvegicus, UniProt P19327); type: cell membranes, CHO-K1, Membrane; details: for IC50: cho-k1; for pIC50: read-out: IC50; for pKi: read-out: Ki; for all read-outs here: in other assays of this panel Not Active means under 50% inhibition at 10 µM
T2 sequence (P19327 whole entry): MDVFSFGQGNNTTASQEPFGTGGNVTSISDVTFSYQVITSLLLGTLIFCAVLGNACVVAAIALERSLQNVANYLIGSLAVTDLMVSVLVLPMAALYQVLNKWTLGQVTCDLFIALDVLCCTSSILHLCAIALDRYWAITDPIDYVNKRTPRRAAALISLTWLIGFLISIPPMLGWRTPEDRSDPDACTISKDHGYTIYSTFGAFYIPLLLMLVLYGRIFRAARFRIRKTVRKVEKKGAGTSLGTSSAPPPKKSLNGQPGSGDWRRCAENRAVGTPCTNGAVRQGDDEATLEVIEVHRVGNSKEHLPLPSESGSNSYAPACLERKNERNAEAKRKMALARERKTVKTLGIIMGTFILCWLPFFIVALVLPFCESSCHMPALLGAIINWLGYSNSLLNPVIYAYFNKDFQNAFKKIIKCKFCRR

[4] = molecular target: Mitogen-activated protein kinase 3 (Homo sapiens, UniProt P27361); experiment: DRUGMATRIX: Protein Serine/Threonine Kinase, ERK1 enzyme inhibition (substrate: Myelin Basic Protein); parameters: species or system Escherichia coli; details: Not Active = under 50% inhibition at 10 µM
Mitogen-activated protein kinase 3, sequence (P27361 whole entry): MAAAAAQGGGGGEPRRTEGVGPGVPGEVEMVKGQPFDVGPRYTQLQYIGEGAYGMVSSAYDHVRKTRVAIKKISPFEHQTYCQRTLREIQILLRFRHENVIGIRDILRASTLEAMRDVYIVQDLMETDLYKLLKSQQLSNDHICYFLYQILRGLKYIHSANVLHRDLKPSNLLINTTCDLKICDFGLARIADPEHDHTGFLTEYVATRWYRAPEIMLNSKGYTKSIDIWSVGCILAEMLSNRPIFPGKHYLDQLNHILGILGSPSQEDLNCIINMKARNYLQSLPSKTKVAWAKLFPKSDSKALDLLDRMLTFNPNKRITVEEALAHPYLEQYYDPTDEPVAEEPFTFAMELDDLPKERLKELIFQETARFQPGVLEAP

[5] = DRUGMATRIX: Interleukin IL-1 radioligand binding (ligand: [125I] interleukin 1beta); type: cell membranes, Membrane; details: nih3t3; Not Active = under 50% inhibition at 10 µM
Leukotriene C4 synthase = molecular target: T3, Leukotriene C4 synthase (Cavia porcellus, UniProt A6XA80); type: tissue-based, Lung;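 note: enzyme inhibition assay of leukotriene C4 synthase, using LTA4 as the substrate; in other assays of this panel Not Active means under 50% inhibition at 10 µM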
T3 sequence (A6XA80 whole entry): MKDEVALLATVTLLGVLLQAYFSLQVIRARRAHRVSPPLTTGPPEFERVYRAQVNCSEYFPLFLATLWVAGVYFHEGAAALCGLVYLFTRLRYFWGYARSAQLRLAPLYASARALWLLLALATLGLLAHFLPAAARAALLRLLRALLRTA

O=C(O)CCCc1ccc(N(CCCl)CCCl)cc1 [CHLORAMBUCIL]
Not Active: IC50 [1] | IC50 (Caspase-1) | IC50 [2] | IC50 [3] | IC50 [4] | IC50 [5] | Ki [5] | IC50 (Leukotriene C4 synthase)

CN(C)CCCN1c2ccccc2Sc2ccc(Cl)cc21 [CHLORPROMAZINE]
4.54: pIC50 [2]
Not Active: IC50 [1] | IC50 (Caspase-1) | IC50 [4] | IC50 [5] | Ki [5] | IC50 (Leukotriene C4 synthase)
5.33: pIC50 [3]
5.57: pKi [3]

C[C@H](CCC(=O)O)[C@H]1CC[C@H]2[C@@H]3[C@H](O)C[C@@H]4C[C@H](O)CC[C@]4(C)[C@H]3C[C@H](O)[C@]12C [CHOLIC ACID]
Not Active: IC50 [1] | IC50 (Caspase-1) | IC50 [2] | IC50 [3] | IC50 [4] | IC50 [5] | Ki [5] | IC50 (Leukotriene C4 synthase)

Cc1cc(C2CCCCC2)n(O)c(=O)c1 [CICLOPIROX]
Not Active: IC50 [1] | IC50 (Caspase-1) | IC50 [2] | IC50 [3] | IC50 [4] | IC50 [5] | Ki [5] | IC50 (Leukotriene C4 synthase)

CC1=C2C(=CO[C@H](C)[C@H]2C)C(O)=C(C(=O)O)C1=O [CITRININ]
Not Active: IC50 [1] | IC50 (Caspase-1) | IC50 [2] | IC50 [3] | IC50 [4] | IC50 [5] | Ki [5] | IC50 (Leukotriene C4 synthase)

CC(C)(C)NCC(O)c1cc(Cl)c(N)c(Cl)c1 (stereo not drawn) [CLENBUTEROL]
Not Active: IC50 [1] | IC50 (Caspase-1) | IC50 [2] | IC50 [4] | IC50 [5] | Ki [5] | IC50 (Leukotriene C4 synthase)
5.82: pKi [3]
5.58: pIC50 [3]

CC(C)(Oc1ccc(Cl)cc1)C(=O)O [CLOFIBRIC ACID]
Not Active: IC50 [1] | IC50 (Caspase-1) | IC50 [2] | IC50 [3] | IC50 [4] | IC50 [5] | Ki [5] | IC50 (Leukotriene C4 synthase)

Clc1cccc(Cl)c1NC1=NCCN1 [CLONIDINE]
Not Active: IC50 [1] | IC50 (Caspase-1) | IC50 [2] | IC50 [4] | IC50 [5] | Ki [5] | IC50 (Leukotriene C4 synthase)
5.27: pIC50 [3]
5.51: pKi [3]

Cc1cc(C(C#N)c2ccc(Cl)cc2)c(Cl)cc1NC(=O)c1cc(I)cc(I)c1O (stereo not drawn) [CLOSANTEL]
6.25: pIC50 [2]
5.85: pIC50 [1]
Not Active: IC50 (Caspase-1) | IC50 [3] | IC50 [4] | IC50 [5] | Ki [5] | IC50 (Leukotriene C4 synthase)

Cc1onc(-c2ccccc2Cl)c1C(=O)N[C@@H]1C(=O)N2[C@@H]1SC(C)(C)[C@@H]2C(=O)O [CLOXACILLIN]
Not Active: IC50 [1] | IC50 (Caspase-1) | IC50 [2] | IC50 [3] | IC50 [4] | IC50 [5] | Ki [5] | IC50 (Leukotriene C4 synthase)

CC1CC(OC(=O)C(O)c2ccccc2)CC(C)(C)C1 (stereo not drawn) [CYCLANDELATE]
Not Active: IC50 [1] | IC50 (Caspase-1) | IC50 [2] | IC50 [3] | IC50 [4] | IC50 [5] | Ki [5] | IC50 (Leukotriene C4 synthase)

Cc1c2oc3c(C)ccc(C(=O)N[C@@H]4C(=O)N[C@H](C(C)C)C(=O)N5CCC[C@H]5C(=O)N(C)CC(=O)N(C)[C@@H](C(C)C)C(=O)O[C@@H]4C)c3nc-2c(C(=O)N[C@@H]2C(=O)N[C@H](C(C)C)C(=O)N3CCC[C@H]3C(=O)N(C)CC(=O)N(C)[C@@H](C(C)C)C(=O)O[C@@H]2C)c(N)c1=O [DACTINOMYCIN] (I: T[dV]P[Sar][NMeV] / II: T[dV]P[Sar][NMeV]; ester I:1-I:C, II:1-II:C; linker I:N-II:N via Actinocin(1to9))
Not Active: IC50 [1] | IC50 (Caspase-1) | IC50 [2] | IC50 [3] | IC50 [4] | IC50 [5] | Ki [5] | IC50 (Leukotriene C4 synthase)

Cc1c(O)c(=O)ccn1C [DEFERIPRONE]
Not Active: IC50 [1] | IC50 (Caspase-1) | IC50 [2] | IC50 [3] | IC50 [4] | IC50 [5] | Ki [5] | IC50 (Leukotriene C4 synthase)

CNCCCN1c2ccccc2CCc2ccccc21 [DESIPRAMINE]
Not Active: IC50 [1] | IC50 (Caspase-1) | IC50 [2] | IC50 [3] | IC50 [4] | IC50 [5] | Ki [5] | IC50 (Leukotriene C4 synthase)

O=c1oc2ccccc2c(O)c1Cc1c(O)c2ccccc2oc1=O [DICUMAROL]
5.35: pIC50 [1]
Not Active: IC50 (Caspase-1) | IC50 [2] | IC50 [3] | IC50 [4] | IC50 [5] | Ki [5] | IC50 (Leukotriene C4 synthase)

C[C@H]1O[C@@H](O[C@H]2[C@@H](O)C[C@H](O[C@H]3[C@@H](O)C[C@H](O[C@H]4CC[C@@]5(C)[C@H](CC[C@@H]6[C@@H]5C[C@@H](O)[C@]5(C)[C@@H](C7=CC(=O)OC7)CC[C@]65O)C4)O[C@@H]3C)O[C@@H]2C)C[C@H](O)[C@@H]1O [DIGOXIN]
Not Active: IC50 [1] | IC50 (Caspase-1) | IC50 [2] | IC50 [3] | IC50 [4] | IC50 [5] | Ki [5] | IC50 (Leukotriene C4 synthase)

CC(C)[C@@]1(NC(=O)[C@@H]2C[C@@H]3c4cccc5[nH]cc(c45)C[C@H]3N(C)C2)O[C@@]2(O)[C@@H]3CCCN3C(=O)[C@H](Cc3ccccc3)N2C1=O.CS(=O)(=O)O [DIHYDROERGOCRISTINE MESYLATE]
9.39: pKi [3]
9.14: pIC50 [3]
Not Active: IC50 [1] | IC50 (Caspase-1) | IC50 [2] | IC50 [4] | IC50 [5] | Ki [5] | IC50 (Leukotriene C4 synthase)

CC(=O)O[C@@]12CO[C@@H]1C[C@H](O)[C@@]1(C)C(=O)[C@H](O)C3=C(C)[C@@H](OC(=O)[C@H](O)[C@@H](NC(=O)OC(C)(C)C)c4ccccc4)C[C@@](O)([C@@H](OC(=O)c4ccccc4)[C@H]21)C3(C)C.O.O.O [DOCETAXEL]
Not Active: IC50 [1] | IC50 (Caspase-1) | IC50 [2] | IC50 [3] | IC50 [4] | IC50 [5] | Ki [5] | IC50 (Leukotriene C4 synthase)

COc1cc2nc(N3CCN(C(=O)C4COc5ccccc5O4)CC3)nc(N)c2cc1OC (stereo not drawn) [DOXAZOSIN]
Not Active: IC50 [1] | IC50 (Caspase-1) | IC50 [2] | IC50 [3] | IC50 [4] | IC50 [5] | Ki [5] | IC50 (Leukotriene C4 synthase)

C[C@H]1c2cccc(O)c2C(=O)C2=C(O)[C@]3(O)C(=O)C(C(N)=O)=C(O)[C@@H](N(C)C)[C@@H]3[C@@H](O)[C@@H]21.O [DOXYCYCLINE]
Not Active: IC50 [1] | IC50 (Caspase-1) | IC50 [2] | IC50 [3] | IC50 [4] | IC50 [5] | Ki [5] | IC50 (Leukotriene C4 synthase)

O=C(CCCN1CC=C(n2c(=O)[nH]c3ccccc32)CC1)c1ccc(F)cc1 [DROPERIDOL]
Not Active: IC50 [1] | IC50 (Caspase-1) | IC50 [2] | IC50 [4] | IC50 [5] | Ki [5] | IC50 (Leukotriene C4 synthase)
6.86: pKi [3]
6.62: pIC50 [3]

CC(C)[C@H]1C(=O)N2CCC[C@H]2[C@]2(O)O[C@](NC(=O)[C@@H]3C=C4c5cccc6[nH]cc(c56)C[C@H]4N(C)C3)(C(C)C)C(=O)N12 [ERGOCORNINE]
Not Active: IC50 [1] | IC50 (Caspase-1) | IC50 [2] | IC50 [4] | IC50 [5] | Ki [5] | IC50 (Leukotriene C4 synthase)
8.51: pIC50 [3]
8.75: pKi [3]

C[C@]12CC[C@@H]3c4ccc(O)cc4CC[C@H]3[C@@H]1CCC2=O [ESTRONE]
Not Active: IC50 [1] | IC50 (Caspase-1) | IC50 [2] | IC50 [3] | IC50 [4] | IC50 [5] | Ki [5] | IC50 (Leukotriene C4 synthase)

OC(Cn1cncn1)(Cn1cncn1)c1ccc(F)cc1F [FLUCONAZOLE]
Not Active: IC50 [1] | IC50 (Caspase-1) | IC50 [2] | IC50 [3] | IC50 [4] | IC50 [5] | Ki [5] | IC50 (Leukotriene C4 synthase)
